Our source for the IC50 and ED50 values is patent publication US6858622B2, “Cycloalkano-indole and -azaindole derivatives” (Bayer Aktiengesellschaft, priority 1994, dated 2005).

For assay [1], the system named is release of ApoB-100-associated lipoproteins from HepG2 cells. As to the kind of experiment: Inhibition of the release of ApoB-100-associated lipoproteins from liver cells (HepG2, anti-LDL immunoassay). Particulars: Homo sapiens; substance concentration at which light absorption at 450 nm (ApoB-100-associated particles in HepG2 supernatant) is inhibited by 50% vs solvent control. The assay is classed as cell-based. Here is the method: I. Inhibition of the Release of ApoB-100-Associated Lipoproteins
The test for detecting the inhibition of the release of ApoB-100-associated lipoproteins from liver cells was carried out in vitro using cultured liver cells, preferably using cells of the human line HepG2. These cells are cultured under standard conditions in medium for the culture of eukaryotic cells, preferably in RPMI 1640 with 10% foetal calf serum. HepG2 cells synthesize and secrete into the culture supernatant ApoB-100-associated lipoprotein particles which in principle are built up in a similar manner to the VLDL and LDL particles which are to be found in the plasma.
These particles can be detected using an immunoassay for human LDL. This immunoassay is carried out using antibodies which have been induced against human LDL in rabbits under standard conditions. The anti-LDL antibodies (rabbit anti-LDL Ab) were purified by affinity chromatography on an immunosorbent using human LDL. […] The immune complex located on the plastic surface is detected using monoclonal antibodies which have been induced against human LDL and purified according to standard conditions. […] After acidification of the reaction mixture with H2SO4, the specific light absorption at 450 nm is determined, which is a measure of the amount of ApoB-100-associated particles which have been secreted into the culture supernatant by the HepG2 cells. […]

The subject of a further assay is VLDL secretion. As to the kind of experiment: Determination of the VLDL secretion in vivo in the hamster (Triton WR-1339 triglyceride rise). Further details: species or system golden hamsters. Particulars: Mesocricetus auratus, po, VLDL secretion measured as triglyceride rise after Triton WR-1339. As to the method: 2. Determination of the VLDL Secretion In Vivo in the Hamster
The effect of the test substances on VLDL secretion in vivo is investigated in the hamster. To do this, golden hamsters are anaesthetized with Ketaset (83 mg/kg s.c.) and Nembutal (50 mg/kg i.p.) after premedication with atropine ([…] s.c.). When the animals have become reflex-free, the jugular vein is exposed and cannulated. 0.25 ml/kg of a 20% strength solution of Triton WR-1339 in physiological saline solution is then administered. This detergent inhibits the lipoprotein lipase and thus leads to a rise in the triglyceride level as a result of a lack of catabolism of secreted VLDL particles. This triglyceride rise can be used as a measure of the VLDL secretion rate.
Blood is taken from the animals before and also one and two hours after administration of the detergent by puncture of the retroorbital venous plexus. […] The triglyceride concentration in the serum thus obtained is determined with the aid of a modified commercially available enzyme test (Merckotest® triglyceride No. 14354). […] The optical density is then determined at a wavelength of 492 nm in an automatic plate-reading apparatus (SLT Spectra). […] The triglyceride concentration contained in the samples is determined with the aid of a standard curve measured in parallel. […]

`Cc1cc(C)c2c3c(n(Cc4ccc(C(C(=O)N[C@@H](CO)c5ccccc5)C5CCCC5)cc4)c2n1)CCCC3` (stereo partly drawn) [Ex. No. 1, 2-S— and 2-(R)-2-[4-(2,4Dimethyl-5,6,7,8-tetrahydro-α-carbolin-9-yl)-methyl-phenyl]-2-cyclopentyl-acetic acid N—[(R)-phenylglycinolamide]] registered an IC50 in assay [1] of 28 nM.
Regarding `Cc1cc(C)c2c3c(n(Cc4ccc(C(C(=O)N[C@@H](CO)c5ccccc5)C5CCCC5)cc4)c2n1)CCCC3` (single isomer, unassigned) [Ex. No. 2], the median effective dose (ED50) in the assay with VLDL secretion was in the range of 10 to 15 mg/kg.
